Experimental data from US20230265116A1, “DEGRADATION OF (EGFR) BY CONJUGATION OF EGFR INHIBITORS WITH E3 LIGASE LIGAND AND METHODS OF USE” (BEIGENE, LTD., priority 2020, published 2023).

Legend:
Format in all cases: cell-based
EGFR (HCC827 cells) = target: T1, EGFR (HCC827 cells) (Homo sapiens, UniProt P00533, DEL746-750); test: EGFR degradation HTRF assay, HCC827 cells; conditions: HCC827, 16h treatment; for Dmax: maximum percentage of degradation
T1 construct: endogenous in cells; host or cells: HCC827
Description: BaF3 WT(wild type), BaF3-LTC(L858R/T790M/C797S) and BaF3-DTC(Del19/T790M/C797S) cells are treated with compounds diluted in 0.2% DMSO cell culture medium and incubate for 16h, 37° C., 5% CO2, H1975-#36, H1975-#28, H1975-#23 and HCC827 cells are treated with compounds diluted in 0.2% DMSO cell culture medium on day 2, incubate for 16h, 37° C., 5% CO2.the final concentriation of compounds in all assay is start with 10 uM, 5-fold dilution, total 8 doses were included.
After 16h treatment, add HTRF lysis buffer to each well; seal the plate and incubate 1 hour at room temperature on a plate shaker; Once the cells are lysed, 16 μL of cell lysate are transferred to a PE 384-well HTRF detection plate; 4 μL of pre-mixed HTRF antibodies are added to each well; Cover the plate with a plate sealer, spin 1000 rpm for 1 min, Incubate overnight at room temperature; Read on BMG PheraStar with HTRF protocol (337 nm-665 nm-620 nm).
The inhibition (degradation) percentage of the compound was calculated by the following equation: Inhibition percentage of Compound=100-100×(Signal-low control)/(High control-low control), wherein signal=each test compound group
High control=Cell group with added DMSO and without compound, indicating microplate readings without EGFR degradation;
Dmax is the maximum percentage of inhibition (degradation).
The IC50 (DC50) value of a compound can be obtained by fitting the following equation
Y=Bottom+(TOP−Bottom)/(1+((IC50/X)^hillslope))
Wherein, X and Y are known values, and IC50, Hillslope, Top and Bottom are the parameters obtained by fitting with software. Y is the inhibition percentage (calculated from the equation), X is the concentration of the compound; IC50 is the concentration of the compound when the 50% inhibition is reached. The smaller the IC50 value is, the stronger the inhibitory ability of the compound is. Vice versa, the higher the IC50 value is, the weaker the inhibitory ability of the compound is; Hillslope represents the slope of the fitted curve, generally around 1*; Bottom represents the minimum value of the curve obtained by data fitting, which is generally 0%±20%; Top represents the maximum value of the curve obtained by data fitting, which is generally 100%±20%. The experimental data were fitted by calculating and analyzing with Dotmatics data analysis software.

[1] = tested on: EGFR Del19/T790M/C797S (BaF3-DTC cells); test: EGFR degradation HTRF assay, BaF3-DTC cells; conditions: 16h treatment; for DTC Dmax (%): maximum percentage of degradation; for DC50: read-out: DTC DC50
Method in brief: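 BaF3 (WT, Del19/T790M/C797S) and HCC827 cells exposed 16 h at 37 °C, 5% CO2 to compounds in 0.2% DMSO medium, 8 doses from 10 uM top, 5-fold steps. Lysates read by HTRF (665/620 nm); degradation % vs DMSO control, DC50 from four-parameter fit, Dmax as maximal degradation.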

[2] = target: T2, EGFR L858R/T790M/C797S (BaF3-LTC cells) (Homo sapiens, UniProt P00533, C797S/L858R/T790M); test: EGFR degradation HTRF assay, BaF3-LTC cells; conditions: BaF3-LTC, 16h treatment; for Dmax: maximum percentage of degradation, read-out: LTC Dmax (%); for DC50: read-out: LTC DC50
T2 construct: expressed in transfected cells; host or cells: BaF3
Method in brief: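 Cells treated 16 h at 37 °C, 5% CO2 in medium with 0.2% DMSO; top final concentration 10 uM, 5-fold dilution, 8 doses. Lysates read by HTRF (665/620 nm); degradation % versus DMSO high control, DC50 from four-parameter fit, Dmax as maximal degradation.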

T2 sequence (P00533 25-1210 T790M/C797S/L858R): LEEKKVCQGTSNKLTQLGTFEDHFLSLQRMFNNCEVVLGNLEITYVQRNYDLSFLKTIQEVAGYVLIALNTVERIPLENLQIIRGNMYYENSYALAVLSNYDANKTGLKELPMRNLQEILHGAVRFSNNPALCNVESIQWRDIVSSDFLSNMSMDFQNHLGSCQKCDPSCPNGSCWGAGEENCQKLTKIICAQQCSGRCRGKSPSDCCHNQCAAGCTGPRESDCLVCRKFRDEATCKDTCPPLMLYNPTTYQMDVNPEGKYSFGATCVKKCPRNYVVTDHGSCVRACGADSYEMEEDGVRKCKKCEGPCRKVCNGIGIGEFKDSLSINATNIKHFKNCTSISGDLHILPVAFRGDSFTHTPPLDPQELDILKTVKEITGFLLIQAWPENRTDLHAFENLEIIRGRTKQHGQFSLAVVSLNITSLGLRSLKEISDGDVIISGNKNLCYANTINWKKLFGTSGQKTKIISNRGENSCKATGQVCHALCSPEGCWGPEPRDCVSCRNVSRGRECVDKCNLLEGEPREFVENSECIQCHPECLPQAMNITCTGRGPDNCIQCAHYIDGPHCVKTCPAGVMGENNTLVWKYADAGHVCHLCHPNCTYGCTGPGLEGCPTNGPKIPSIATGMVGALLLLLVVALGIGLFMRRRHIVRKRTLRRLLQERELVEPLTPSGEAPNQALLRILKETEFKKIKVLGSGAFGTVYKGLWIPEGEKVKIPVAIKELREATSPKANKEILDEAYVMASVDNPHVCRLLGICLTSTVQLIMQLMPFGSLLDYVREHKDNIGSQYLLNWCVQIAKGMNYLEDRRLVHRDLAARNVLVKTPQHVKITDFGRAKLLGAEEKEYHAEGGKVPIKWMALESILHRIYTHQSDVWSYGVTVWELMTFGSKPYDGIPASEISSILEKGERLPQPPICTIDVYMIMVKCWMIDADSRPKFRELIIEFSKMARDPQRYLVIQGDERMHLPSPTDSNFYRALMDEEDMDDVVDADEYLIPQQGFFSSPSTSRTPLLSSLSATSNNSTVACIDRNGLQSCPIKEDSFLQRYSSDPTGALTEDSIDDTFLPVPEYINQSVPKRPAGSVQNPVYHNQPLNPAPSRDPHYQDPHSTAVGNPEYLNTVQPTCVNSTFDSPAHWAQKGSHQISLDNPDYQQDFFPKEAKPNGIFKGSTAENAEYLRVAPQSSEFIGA
T1 sequence (P00533 with tags, fused parts or gaps DEL746-750): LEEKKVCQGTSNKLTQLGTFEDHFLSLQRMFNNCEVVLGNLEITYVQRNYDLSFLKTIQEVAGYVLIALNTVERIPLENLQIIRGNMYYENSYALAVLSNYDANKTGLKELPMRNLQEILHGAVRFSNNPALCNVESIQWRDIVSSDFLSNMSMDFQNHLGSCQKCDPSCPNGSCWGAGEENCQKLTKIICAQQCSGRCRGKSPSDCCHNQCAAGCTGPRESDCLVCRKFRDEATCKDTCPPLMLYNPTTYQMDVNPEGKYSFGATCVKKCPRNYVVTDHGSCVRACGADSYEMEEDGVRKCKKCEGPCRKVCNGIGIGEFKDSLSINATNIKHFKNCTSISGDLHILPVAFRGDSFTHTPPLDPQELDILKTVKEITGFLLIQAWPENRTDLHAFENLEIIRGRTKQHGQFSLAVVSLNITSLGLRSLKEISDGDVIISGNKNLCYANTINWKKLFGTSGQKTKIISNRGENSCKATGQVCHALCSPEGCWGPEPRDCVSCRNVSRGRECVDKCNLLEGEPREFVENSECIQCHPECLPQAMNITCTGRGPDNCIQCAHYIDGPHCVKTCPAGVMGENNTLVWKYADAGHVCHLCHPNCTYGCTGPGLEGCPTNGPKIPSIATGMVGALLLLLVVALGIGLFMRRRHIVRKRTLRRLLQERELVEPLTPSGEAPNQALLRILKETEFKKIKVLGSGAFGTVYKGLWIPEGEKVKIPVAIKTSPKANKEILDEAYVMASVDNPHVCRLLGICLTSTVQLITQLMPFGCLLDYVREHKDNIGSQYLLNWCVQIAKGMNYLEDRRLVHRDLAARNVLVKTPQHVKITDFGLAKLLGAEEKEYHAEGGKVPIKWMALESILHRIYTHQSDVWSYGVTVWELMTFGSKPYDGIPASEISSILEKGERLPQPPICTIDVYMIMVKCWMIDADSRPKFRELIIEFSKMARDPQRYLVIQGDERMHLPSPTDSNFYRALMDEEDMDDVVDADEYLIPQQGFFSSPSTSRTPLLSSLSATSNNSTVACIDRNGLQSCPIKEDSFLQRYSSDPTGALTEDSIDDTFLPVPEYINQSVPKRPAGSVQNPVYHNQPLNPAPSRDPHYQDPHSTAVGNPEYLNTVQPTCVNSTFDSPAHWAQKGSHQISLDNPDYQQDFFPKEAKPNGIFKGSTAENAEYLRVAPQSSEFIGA

SMILES | DC50 (EGFR (HCC827 cells)) [nM] | Dmax (EGFR (HCC827 cells)) [%] | DTC Dmax (%) [1] [%] | DC50 [1] [nM] | Dmax [2] [%] | DC50 [2] [nM]
COc1cc(N2CCC(NCCCCCc3ccc(C4CCC(=O)NC4=O)cc3)CC2)ccc1Nc1ncc(Cl)c(Nc2ccccc2N(C)S(C)(=O)=O)n1 (centres unmarked) [Example 131, N-(2-((5-chloro-2-((4-(4-((5-(4-(2,6-dioxopiperidin-3-yl)phenyl)pentyl)amino)piperidin-1-yl)-2-methoxyphenyl)amino)pyrimidin-4-yl)amino)phenyl)-N-methylmethanesulfonamide] | 68.3 | 80.1 |  |  |  | 
COc1cc(N2CCC(N3CCN(C(=O)CCCCN4CCN(c5ccc6c(c5)C(=O)N(C5CCC(=O)NC5=O)C6=O)CC4)CC3)CC2)ccc1Nc1ncc(Cl)c(Nc2ccccc2P(C)(C)=O)n1 (centres unmarked) [Example 114, 5-(4-(5-(4-(1-(4-((5-chloro-4-((2-(dimethylphosphoryl)phenyl)amino)pyrimidin-2-yl)amino)-3-methoxyphenyl)piperidin-4-yl)piperazin-1-yl)-5-oxopentyl)piperazin-1-yl)-2-(2,6-dioxopiperidin-3-yl)isoindoline-1,3-dione] | 8.23 | 82.4 |  |  |  | 
COc1cc(N2CCN(CCCOc3ccc(OC4CCC(=O)NC4=O)cc3)CC2)c(C)cc1Nc1ncc(Br)c(Nc2ccc3nccnc3c2P(C)(C)=O)n1 (centres unmarked) [Example 92, 3-(4-(3-(4-(4-((5-bromo-4-((5-(dimethylphosphoryl)quinoxalin-6-yl)amino)pyrimidin-2-yl)amino)-5-methoxy-2-methylphenyl)piperazin-1-yl)propoxy)phenoxy)piperidine-2,6-dione] | 306 | 76.8 |  |  |  | 
CCc1cc(Nc2ncc(Br)c(Nc3ccc4nccnc4c3P(C)(C)=O)n2)c(OC)cc1N1CCC(N2CCN(C(=O)CN3CCN(c4ccc5c(c4)C(=O)N(C4CCC(=O)NC4=O)C5)CC3)CC2)CC1 (centres unmarked) [Example 68, 3-(6-(4-(2-(4-(1-(4-((5-bromo-4-((5-(dimethylphosphoryl)quinoxalin-6-yl)amino)pyrimidin-2-yl)amino)-2-ethyl-5-methoxyphenyl)piperidin-4-yl)piperazin-1-yl)-2-oxoethyl)piperazin-1-yl)-1-oxoisoindolin-2-yl)piperidine-2,6-dione] | 13.1 | 64.3 |  |  |  | 
COc1cc(N2CCC(N3CCN(C(=O)CC4CCN(c5ccc(C6CCC(=O)NC6=O)cc5)CC4)CC3)CC2)ccc1Nc1ncc(Cl)c(Nc2ccccc2N(C)S(C)(=O)=O)n1 (centres unmarked) [Example 122, N-(2-((5-chloro-2-((4-(4-(4-(2-(1-(4-(2,6-dioxopiperidin-3-yl)phenyl)piperidin-4-yl)acetyl)piperazin-1-yl)piperidin-1-yl)-2-methoxyphenyl)amino)pyrimidin-4-yl)amino)phenyl)-N-methylmethanesulfonamide] | 6.37 | 69.2 |  |  |  | 
COc1cc(N2CCC(N(C)CCC3CCN(c4ccc(N5CCC(=O)NC5=O)cc4)CC3)CC2)c(C)cc1Nc1ncc(Br)c(Nc2ccc3nccnc3c2P(C)(C)=O)n1 [Example 80, 1-(4-(4-(2-((1-(4-((5-bromo-4-((5-(dimethylphosphoryl)quinoxalin-6-yl)amino)pyrimidin-2-yl)amino)-5-methoxy-2-methylphenyl)piperidin-4-yl)(methyl)amino)ethyl)piperidin-1-yl)phenyl)dihydropyrimidine-2,4(1H,3H)-dione] | 35.9 | 74.4 |  |  |  | 
COc1cc(N2CCC(N(C)CCc3ccc(C4CCC(=O)NC4=O)cn3)CC2)c(C)cc1Nc1ncc(Br)c(Nc2ccc3nccnc3c2P(C)(C)=O)n1 (centres unmarked) [Example 74, 3-(6-(2-((1-(4-((5-bromo-4-((5-(dimethylphosphoryl)quinoxalin-6-yl)amino)pyrimidin-2-yl)amino)-5-methoxy-2-methylphenyl)piperidin-4-yl)(methyl)amino)ethyl)pyridin-3-yl)piperidine-2,6-dione] | 57.2 | 85.2 |  |  |  | 
COc1cc(N2CCC(NCCCCCCCc3ccc(C4CCC(=O)NC4=O)cc3)CC2)ccc1Nc1ncc(Cl)c(Nc2ccccc2N(C)S(C)(=O)=O)n1 (centres unmarked) [Example 132, N-(2-((5-chloro-2-((4-(4-((7-(4-(2,6-dioxopiperidin-3-yl)phenyl)heptyl)amino)piperidin-1-yl)-2-methoxyphenyl)amino)pyrimidin-4-yl)amino)phenyl)-N-methylmethanesulfonamide] | 34 | 80 |  |  |  | 
CN(c1ccccc1Nc1nc(Nc2ccc(N3CC4(CN(C(=O)C5CCN(CC6CCN(c7ccc8c(c7)C(=O)N(C7CCC(=O)NC7=O)C8=O)CC6)CC5)C4)C3)c(F)c2)ncc1Cl)S(C)(=O)=O (centres unmarked) [Example 137, N-(2-((5-chloro-2-((4-(6-(1-((1-(2-(2,6-dioxopiperidin-3-yl)-1,3-dioxoisoindolin-5-yl)piperidin-4-yl)methyl)piperidine-4-carbonyl)-2,6-diazaspiro[3.3]heptan-2-yl)-3-fluorophenyl)amino)pyrimidin-4-yl)amino)phenyl)-N-methylmethanesulfonamide] | 9.41 | 92.5 |  |  |  | 
COc1cc(N2CCC(N3CCN(CCc4ccc(NC5CCC(=O)NC5=O)cc4)CC3)CC2)ccc1Nc1ncc(Cl)c(Nc2ccccc2P(C)(C)=O)n1 (centres unmarked) [Example 108] | 16.6 | 82.2 |  |  |  | 
COc1cc(N2CCC(N3CCN(C(=O)CC4CCN(c5ccc(C6CCC(=O)NC6=O)cc5)CC4)CC3)CC2)ccc1Nc1ncc(Cl)c(Nc2ccccc2P(C)(C)=O)n1 (centres unmarked) [Example 107, 3-(4-(4-(2-(4-(1-(4-((5-chloro-4-((2-(dimethylphosphoryl)phenyl)amino)pyrimidin-2-yl)amino)-3-methoxyphenyl)piperidin-4-yl)piperazin-1-yl)-2-oxoethyl)piperidin-1-yl)phenyl)piperidine-2,6-dione] | 17.2 | 79.3 |  |  |  | 
CCc1cc(Nc2ncc(Br)c(Nc3ccc4nccnc4c3P(C)(C)=O)n2)c(OC)cc1N1CCC(N2CCN(C(=O)CCCCN3CCN(c4ccc5c(c4)C(=O)N(C4CCC(=O)NC4=O)C5=O)CC3)CC2)CC1 (centres unmarked) [Example 62, 5-(4-(5-(4-(1-(4-((5-bromo-4-((5-(dimethylphosphoryl)quinoxalin-6-yl)amino)pyrimidin-2-yl)amino)-2-ethyl-5-methoxyphenyl)piperidin-4-yl)piperazin-1-yl)-5-oxopentyl)piperazin-1-yl)-2-(2,6-dioxopiperidin-3-yl)isoindoline-1,3-dione] | 6.24 | 83.7 |  |  |  | 
CCc1cc(Nc2ncc(Br)c(Nc3ccc4nccnc4c3P(C)(C)=O)n2)c(OC)cc1N1CCC(N2CCN(CCN(C)c3ccc4c(c3)C(=O)N(C3CCC(=O)NC3=O)C4)CC2)CC1 (centres unmarked) [Example 249, 3-(6-((2-(4-(1-(4-((5-bromo-4-((5-(dimethylphosphoryl)quinoxalin-6-yl)amino)pyrimidin-2-yl)amino)-2-ethyl-5-methoxyphenyl)piperidin-4-yl)piperazin-1-yl)ethyl)(methyl)amino)-1-oxoisoindolin-2-yl)piperidine-2,6-dione] |  |  | 90.4 | 3.01 | 86.7 | 28.6
CCc1cc(Nc2ncc(Br)c(Nc3ccc4nccnc4c3P(C)(C)=O)n2)c(OC)cc1N1CCC(N2CCN(C(=O)[C@@H]3CCN(c4ccc5c(c4)CN(C4CCC(=O)NC4=O)C5=O)C3)CC2)CC1 (stereo partly drawn) [Example 241, 3-(5-((R)-3-(4-(1-(4-((5-bromo-4-((5-(dimethylphosphoryl)quinoxalin-6-yl)amino)pyrimidin-2-yl)amino)-2-ethyl-5-methoxyphenyl)piperidin-4-yl)piperazine-1-carbonyl)pyrrolidin-1-yl)-1-oxoisoindolin-2-yl)piperidine-2,6-dione] |  |  | 89.74 | 3.26 | 87.6 | 4.6
